The source of these data is patent US6084072A, “Purified lectin and methods of use” (The Regents of the University of Michigan, priority 1993, dated 2000).

Assay [1] relates to asialo-ovine submaxillary mucin. Kind of assay: pH dependence of amaranthin/asialo-ovine submaxillary mucin precipitation. In kind it is binding. The following applies: 80 μg amaranthin, 5 μg asialo-ovine submaxillary mucin, universal buffer. Here is the method: The pH dependence study utilized a 2-fold concentrate of a universal buffer system consisting of sodium citrate (24.6 mM), KH2 PO4 (28.7 mM) sodium barbitol (29.1 mM), boric acid (28.8 mM), and NaCl (209 mM), and was adjusted to the indicated pH values with 0.2 N NaOH or 0.2 N HCl. Water was added to complete the 2-fold dilution and the pH was recorded. Amaranthin and asialo-ovine submaxillary mucin solutions were prepared as concentrated solutions in 0.9% NaCI. A standard precipitation assay with amaranthin (80μg) and asialo-ovine submaxillary mucin (5 μg) was carried out using the universal buffer at the indicated pH.

In a further assay the test system is hog lymphocytes. The following applies: cited from earlier work.

As for amaranthin, in assay [1], the “pH at or below which almost no precipitate formed” value was ≤ 3 pH, the “pH of peak precipitation activity” value was 5 pH and the “pH range of significant amaranthin activity” value was 4-9 pH. Further, in the assay on hog lymphocytes, the “mitogenicity, in words” value is given as “non-mitogenic”.
